In patent publication US20080221203A1, “Use of Agonists and Antagonists of Beta Adrenoceptors for Treating Arterial Disease” (UNIVERSITY CATHOLIQUE DE LOUVAIN, priority 2004, published 2008):
Entries after “also recorded” stand apart in the source; their conditions may differ. Where two headings read alike, the source gives them in different places. No end group written: not given here.

How the values were obtained:
[1] = tested on: human coronary microarteries; test: Videomicroscopy of relaxation of pre-constricted, pressurized human coronary microarteries; type: cell-based; conditions: for relaxation, % of the maximum ET-1-evoked contraction: agonist alone; for relaxation in the presence of bupranolol: beta1-2-3 antagonist bupranolol; for relaxation, % of the maximum ET-1-evoked contraction, in the presence of nadolol: pre-treatment with beta1-2 antagonist nadolol; for relaxation of vessels without functional endothelium, % of the maximum KCl-evoked contraction: de-endothelialized / endothelium destroyed microarteries; for relaxation, % of the maximum KCl-evoked contraction: pre-constricted with high (50 mmol/L) KCl, functional endothelium; for relaxation of de-endothelialized vessels in the presence of nadolol: de-endothelialized microarteries
Description: Vessels were cannulated with dual glass micropipettes and secured with 10-0 nylon monofilament sutures in a Plexiglas isolated organ chamber circulated with oxygenated PSS (37° C.) and placed on an inverted microscope (Axiovert S100, Zeiss, Germany) connected to a CCD camera. Microvessels were pressurized with a PSS-filled burette manometer at 60 mmHg (a pressure chosen to avoid stretch-dependent effects typically manifested at higher pressures) in a no-flow state. Digitized imaging (IONOPTIX Corporation, Milton, Mass.) allowed continuous monitoring of vessel external diameter. All experiments were carried out in the presence of cyclooxygenase inhibitor (indomethacin, 10 μmol/L). After 30-45 min equilibration, vessels were contracted with high KCl solution (PSS, 50 mmol/L KCl replacing NaCl stoechiometrically). At the maximum of contraction, vasorelaxation with Substance P (100 nmol/L) was systematically tested to assess the presence of a functional endothelium. In some experiments, the endothelium was selectively destroyed by an air bolus. All reagents were added in the bathing solution.

[2] = tested on: human coronary microarteries; test: Measurement of smooth muscle membrane potential of isolated human coronary microvessels; type: cell-based; conditions: in the presence of NO synthase and cyclooxygenase inhibition
Description: Human right atrial and left ventricular tissue specimens obtained from patients undergoing cardiac surgery were placed in physiological saline solution (PSS) containing (mmol/L): NaCl, 120; KCl, 5.9; NaHCO3, 25; dextrose, 17.5; CaCl2, 2.5; MgCl2, 1.2; NaH2PO4, 1.2 (pH 7.4) maintained at 0-4° C., and carefully dissected to isolate microarteries. Coronary microarteries (70-170 μm diameter, 1-2 mm length), rapidly cleaned of adherent connective tissue were either kept at −80° C. until homogenization or used for functional experiments.
Microvessels were mounted in an organ bath continuously circulated (6 mL/min) with oxygenated PSS at 37° C. All experiments were performed in the presence of a NO synthase inhibitor (L-w-nitroarginine, 100 μmol/L) and indomethacin (10 μmol/L). After 60 minutes of equilibration, measurement of the smooth muscle membrane potential (Em) was made with a glass microelectrode (Clark, Electromedical instruments, type GC 120F-15) filled with 1.5M KCl. The input resistance of the microelectrodes varied between 50 and 80 MΩ. Differences in electric potential were measured with a Dagan amplifier (8100, Minneapolis, Minn., U.S.A.) and recorded. Criteria for a successful impalement were (1) an abrupt drop in voltage on entry of microelectrode into the cell, (2) stable membrane potential for at least 2 min, and (3) a sharp return to zero on withdrawal of the electrode.

aortic rings = test: Mouse aortic ring angiogenesis (new tubes formation); type: cell-based; conditions: for angiogenic response in beta3 adrenoceptor deficient rings: aortic rings from beta 3-KO mice
human beta3 AR = test: Akt and eNOS phosphorylation in neonatal cardiac myocytes with adenoviral expression of human beta3 AR; type: cell-based, mouse; conditions: agonist-mediated activation, Isoproterenol+nadolol; myocytes from C57BI6 control and cardiac eNOS transgene mice
[3] = tested on: cultured endothelial cells; test: Calcium transients (Ca fluorescence) in cultured endothelial cells; type: cell-based; conditions: for Ca signal increase after pre-treatment with nadolol: beta1-2 antagonist nadolol; for Ca signal increase after pre-treatment with bupranolol: combined beta1-2-3 antagonist bupranolol; for increase of Ca fluorescence: endothelial cells, compound alone
Description: (§1) Human and rat cardiac coronary resistance microarteries (70-170μ diameter) were mounted in dual glass micropipettes chambers in no-flow state and constant pressure for vasomotion analysis by videomicroscopy. In addition, calcium transients and NO release were measured in cultured endothelial cells with an amperometric electrode and Fura-2 fluorescence, respectively. Phosphorylation of eNOS was measured in the same cells with phospho-specific antibodies.

[4] = tested on: cultured endothelial cells; test: NO release in cultured endothelial cells; type: cell-based; conditions: for NO release in the presence of L-NAME: 10 μM; for NO release: at 10 μM
Description: as §1

eNOS = eNOS Threonine 495 phosphorylation in cultured endothelial cells (phospho-specific antibodies); type: cell-based
Description: as §1

[5] = tested on: rat coronary microvessels; test: Videomicroscopy of relaxation of rat coronary microvessels; type: cell-based; conditions: for max relaxation, % of PGF2alpha pre-contracted tone: at 10 μM
Description: as §1

[6] = tested on: coronary microarteries from mice deficient for the beta3-adrenoceptor; test: Relaxation of coronary microarteries from mice deficient for the beta3-adrenoceptor; type: cell-based, mouse
Description: as §1, with “antibodies. […] Relaxation to Nebivolol was blunted in coronary microarteries from mice deficient for the beta3-adrenoceptor (C).” for “antibodies.”

[7] = ET-1 pre-constricted, intact endothelium
[8] = ET-1 pre-constricted, intact endothelium, listed as BRL 37344
[9] = ET-1 pre-constricted, intact endothelium, listed as isoproterenol
[10] = rat microvessels, listed as Nebivolol

`C[C@H](Cc1ccc(OCC(=O)O)cc1)NC[C@H](O)c1cccc(Cl)c1` [BRL37344] was tested, and the “relaxation of ET-1 preconstricted vessels under NO synthase inhibition” value ([1]; ET-1 pre-constricted, L-w-nitroarginine) was “unaffected”, the “relaxation, % of the maximum ET-1-evoked contraction” value [1, 7] was about 50% and the “relaxation, % of the maximum ET-1-evoked contraction” value [1, 8] was 52.3±13.2%. The “relaxation in the presence of bupranolol” value [1, 7] was “blocked; also recorded: abolished”, the “relaxation in the presence of bupranolol” value [1, 8] was “fully abrogated” and the “relaxation, % of the maximum ET-1-evoked contraction, in the presence of nadolol” value (“relaxation, % … of nadolol” below) [1, 7] was “insensitive; also recorded: resistant”. The “relaxation, % … of nadolol” value [1, 8] was 54.9±16.8%, the “max relaxation, % of ET-1 pre-contracted tone” value ([1]; Example 2, nebivolol at 10 μM) was “reproduced” and the “relaxation of KCl-preconstricted vessels under NO synthase inhibition” value ([1]; KCl pre-constricted, L-w-nitroarginine 100 μmol/L) was “totally abrogated”. The “relaxation of vessels without functional endothelium, % of the maximum KCl-evoked contraction” value [1] was “absent; also recorded: not observed; also recorded: failed to relax”, the “relaxation, % of the maximum KCl-evoked contraction” value [1] was 15.5% and the “relaxation, % of the maximum KCl-evoked contraction” value ([1]; listed as BRL 37344) was 15.5±5.3%. For the same compound, the “smooth muscle membrane potential” value [2] was “significant hyperpolarization”.
`CCOC(=O)COc1ccc2c(c1)C[C@@H](NC[C@H](O)c1cccc(Cl)c1)CC2` [SR58611] was tested, and the “new tubes formation compared to untreated controls” value (aortic rings; aortic rings from C57BI6 mice treated in vitro) was “time-dependent increase in new tubes formation” and the “angiogenic response in beta3 adrenoceptor deficient rings” value (aortic rings) was “completely lost”.
In the case of `CC(C)NCC(O)c1ccc(O)c(O)c1` (stereo not drawn) [isoprenaline], the “relaxation, % of the maximum ET-1-evoked contraction” value [1, 7] is reported as about 50%, the “relaxation, % of the maximum ET-1-evoked contraction” value [1, 9] is reported as “by half” and the “relaxation in the presence of bupranolol” value [1, 7] is reported as “blocked; also recorded: abolished”. The “relaxation in the presence of bupranolol” value [1, 9] was “fully abrogated”, the “relaxation, % … of nadolol” value [1, 7] was “insensitive; also recorded: resistant” and the “relaxation, % … of nadolol” value [1, 9] was “unaffected”. The “relaxation of vessels without functional endothelium, % of the maximum KCl-evoked contraction” value [1] was 21.0±6.3%, the “relaxation of de-endothelialized vessels in the presence of nadolol” value ([1]; nadolol, listed as Iso) was “abrogated” and the “relaxation of de-endothelialized vessels in the presence of nadolol” value ([1]; nadolol, listed as isoproterenol) was 1.4±0.5%. The “phosphorylation of Akt and downstream eNOS” value (human beta3 AR) was “increased phosphorylation of Akt and downstream eNOS”.
`OC(CNCC(O)C1CCc2cc(F)ccc2O1)C1CCc2cc(F)ccc2O1` (stereo not drawn) [nebivolol] was tested, and the “Ca signal increase after pre-treatment with nadolol” value [3] was “no effect”, the “Ca signal increase after pre-treatment with nadolol” value ([3]; listed as Nebivolol) was “unchanged” and the “Ca signal increase after pre-treatment with bupranolol” value [3] was “significantly blunted”. The “Ca signal increase after pre-treatment with bupranolol” value ([3]; listed as Nebivolol) was “sensitive to bupranolol”, the “increase of Ca fluorescence” value [3] was 91.8±23.7% and the “increase of Ca fluorescence” value ([3]; listed as Nebivolol) was “cytosolic calcium increase”. The “NO release in the presence of L-NAME” value [4] was 26.5±4.3 nmoles/μg prot, the “NO release in the presence of L-NAME” value ([4]; listed as Nebivolol) was “sensitive to L-Name” and the NO release [4] was 117 nmol/µg protein. The NO release ([4]; listed as Nebivolol) was “evoked a release of NO”, the “dependence of relaxation on endothelium (Example 2)” value ([1]; human coronary microvessels) was “dependent on a functional endothelium” and the “relaxation under NOS inhibition (Example 2)” value ([1]; human coronary microvessels, NOS inhibition) was “sensitive to NOS inhibition”. The “relaxation in the presence of nadolol (Example 2)” value ([1]; human coronary microvessels, nadolol) was “insensitive”, the “phosphorylation of Threonine 495 on eNOS” value (eNOS) was “dephosphorylated” and the “phosphorylation of Threonine 495 on eNOS” value (eNOS; listed as Nebivolol) was “time-dependent dephosphorylation”. The “max relaxation, % of PGF2alpha pre-contracted tone” value [5] was “dose-dependent-relaxation”, the “max relaxation, % of PGF2alpha pre-contracted tone” value ([5]; listed as Nebivolol) was 86±6% and the “relaxation under NOS inhibition” value ([5]; rat microvessels, NOS inhibition) was “sensitive to NOS inhibition”. The “relaxation in the presence of bupranolol” value ([5]; rat microvessels) was “sensitive to bupranolol”, the “relaxation in the presence of bupranolol” value [5, 10] was “prevented” and the “relaxation in the presence of nadolol” value ([5]; rat microvessels) was “not to nadolol”. The “relaxation in the presence of nadolol” value [5, 10] was “unaffected” and the “relaxation in microvessels from mice genetically deficient in beta3-AR” value [6] was “blunted”.
With `NC[C@H](O)c1ccc(O)c(O)c1` [norepinephrine] the “relaxation, % of ET-1 contraction” value ([1]; 1 micromol/l, intact endothelium, pretreated with nadolol and phentolamine) was 41.4±7%.
In the case of “Substance P: endothelium-specific agonist (RPKPQQFFGLM; ends and bridges not checked; UniProt P20366 58-68, looked up)”, the “relaxation of vessels without functional endothelium, % of the maximum KCl-evoked contraction” value [1] is reported as “absence of relaxation”.
For VEGF, the “angiogenic response in beta3 adrenoceptor deficient rings” value (aortic rings) was “angiogenic response”.
